From US8580965B2, “Substituted sulfonamide compounds” (Gruenenthal GmbH, priority 2006, dated 2013)
Structures can show the parent of a compound that is named as a salt.

What was measured:
[1] = biological target: T1, human B1R receptor (bradykinin 1 receptor) (Homo sapiens, UniProt P46663); assay: FLIPR Ca2+ assay (Fluo-4) on CHO K1 cells stably transfected with the human B1R gene; % activation and % inhibition at 10 μM; format: cell-based; conditions: CHO-K1, test substance 10 μM; CHO K1 hB1R cells; Ca2+ inflow after 0.5 nM Lys-Des-Arg9-bradykinin; read-out: B1R antagonism, human [10 μM] % inhibition
T1 construct: host or cells: CHO K1 cells (hB1R cells)
T1 sequence (P46663 1-353): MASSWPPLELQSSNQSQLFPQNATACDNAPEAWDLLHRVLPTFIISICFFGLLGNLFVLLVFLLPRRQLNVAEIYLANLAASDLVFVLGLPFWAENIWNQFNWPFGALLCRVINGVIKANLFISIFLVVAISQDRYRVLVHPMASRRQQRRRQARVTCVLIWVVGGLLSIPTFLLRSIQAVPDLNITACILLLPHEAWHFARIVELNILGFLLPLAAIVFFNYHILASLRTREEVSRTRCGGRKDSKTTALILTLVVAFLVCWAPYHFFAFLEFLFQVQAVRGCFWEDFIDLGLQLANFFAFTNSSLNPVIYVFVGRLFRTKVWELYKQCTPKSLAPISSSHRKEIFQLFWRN
How it was run: (§1)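 CHO K1 cells stably expressing human or rat B1R, Fluo-4 loaded, read by FLIPR (peak fluorescence). Compound at 10 µM first gives % activation versus agonist; after 10 min, agonist (human: 0.5 nM Lys-Des-Arg9-bradykinin; rat: 100 nM Des-Arg9-bradykinin) gives % inhibition relative to maximal inhibition.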

[2] = biological target: T2, B1R receptor of the rat (bradykinin 1 receptor) (Rattus norvegicus, UniProt P97583); assay: FLIPR Ca2+ assay (Fluo-4) on CHO K1 cells stably transfected with the B1R gene of the rat; % activation and % inhibition at 10 μM; format: cell-based; conditions: CHO-K1, test substance 10 μM; CHO K1 rB1R cells; Ca2+ inflow after 100 nM Des-Arg9-bradykinin; read-out: B1R antagonism, rat [10 μM] % inhibition
T2 construct: host or cells: CHO K1 cells (rB1R cells)
T2 sequence (P97583 1-337): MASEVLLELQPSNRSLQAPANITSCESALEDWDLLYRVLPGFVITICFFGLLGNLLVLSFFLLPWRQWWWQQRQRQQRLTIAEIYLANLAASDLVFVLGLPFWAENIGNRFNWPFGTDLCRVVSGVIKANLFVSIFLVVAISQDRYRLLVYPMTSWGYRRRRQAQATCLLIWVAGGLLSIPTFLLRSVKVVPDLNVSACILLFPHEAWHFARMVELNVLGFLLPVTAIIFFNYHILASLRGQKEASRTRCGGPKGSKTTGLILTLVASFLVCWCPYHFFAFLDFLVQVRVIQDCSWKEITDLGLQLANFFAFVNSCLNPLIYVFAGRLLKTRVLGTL
How it was run: as §1

Row | inhibition at 10 µM [1] [%] | inhibition at 10 µM [2] [%] | Compound
1 | 7.61 | 80.9 | O=C(COCC1CCCN1S(=O)(=O)c1cc(Cl)sc1Cl)N1CCC(O)(c2cccc(C(F)(F)F)c2)CC1 (stereo not shown) [Example 227, 2-((1-(2,5-dichlorothiophen-3-ylsulfonyl)pyrrolidin-2-yl)methoxy)-1-(4-hydroxy-4-(3-(trifluoromethyl)phenyl)piperidin-1-yl)ethanone]
2 | 41.9 | 78.3 | O=C(COCC1CCCCN1S(=O)(=O)c1cc(Cl)sc1Cl)N1CCC(O)(c2ccccc2)CC1 (stereo not shown) [Example 271, 2-((1-(2,5-dichlorothiophen-3-ylsulfonyl)piperidin-2-yl)methoxy)-1-(4-hydroxy-4-phenylpiperidin-1-yl)ethanone]
3 | 98.4 | 99.1 | COc1cc(C)c(S(=O)(=O)N(CCOCC(=O)N2CCC(O)(c3cccs3)CC2)CC(C)C)c(C)c1C [Example 269, N-(2-(2-(4-hydroxy-4-(thiophen-2-yl)piperidin-1-yl)-2-oxoethoxy)ethyl)-N-isobutyl-4-methoxy-2,3,6-trimethylphenylsulfonamide]
4 | 70.7 | 88.3 | COc1cc(C)c(S(=O)(=O)N(C)CCOCCC(=O)N2CCC(O)(c3ccccc3)CC2)c(C)c1 [Example 276, N-(2-(3-(4-hydroxy-4-phenylpiperidin-1-yl)-3-oxopropoxy)ethyl)-4-methoxy-N,2,6-trimethylphenylsulfonamide]
5 | 73.1 | 91.1 | CN(CCOCC(=O)N1CCC(O)(c2ccc(Cl)cc2)CC1)S(=O)(=O)c1cc(Cl)sc1Cl [Example 260, 2,5-dichloro-N-(2-(2-(4-(4-chlorophenyl)-4-hydroxypiperidin-1-yl)-2-oxoethoxy)ethyl)-N-methylthiophene-3-sulfonamide]
6 | 70.8 | 87.3 | O=C(COC1CCCN(S(=O)(=O)c2c(Cl)cc(Cl)cc2Cl)C1)N1CCC(O)(Cc2ccccc2)CC1 (stereo not shown) [Example 249, 1-(4-benzyl-4-hydroxypiperidin-1-yl)-2-(1-(2,4,6-trichlorophenylsulfonyl)piperidin-3-yloxy)ethanone]
7 | 40 | 85.1 | O=C(COCC1CCN(S(=O)(=O)c2c(Cl)cc(Cl)cc2Cl)C1)N1CCC(O)(Cc2ccccc2)CC1 (stereo not shown) [Example 248, 1-(4-benzyl-4-hydroxypiperidin-1-yl)-2-((1-(2,4,6-trichlorophenylsulfonyl)pyrrolidin-3-yl)methoxy)ethanone]
8 | 65.5 | 100 | O=C(COCC1CCCCN1S(=O)(=O)c1cc(Cl)sc1Cl)N1CCC(O)(c2cccnc2)CC1 (stereo not shown) [Example 229, 2-((1-(2,5-dichlorothiophen-3-ylsulfonyl)piperidin-2-yl)methoxy)-1-(4-hydroxy-4-(pyridin-3-yl)piperidin-1-yl)ethanone]
9 | 102 | 99.3 | O=C(COCC1CCCCN1S(=O)(=O)c1c(Cl)cccc1Cl)N1CCC(O)(c2ccc(Br)cc2)CC1 (stereo not shown) [Example 234, 1-(4-(4-bromophenyl)-4-hydroxypiperidin-1-yl)-2-((1-(2,6-dichlorophenylsulfonyl)piperidin-2-yl)methoxy)ethanone]

Continued, compound first:

Row | Compound | inhibition at 10 µM [1] [%] | inhibition at 10 µM [2] [%]
10 | Cc1cc(C)c(S(=O)(=O)N2Cc3ccccc3CC2COCC(=O)N2CCC(O)(Cc3ccccc3)CC2)c(C)c1 (stereo not shown) [Example 201, 1-(4-benzyl-4-hydroxypiperidin-1-yl)-2-((2-(mesitylsulfonyl)-1,2,3,4-tetrahydroisoquinolin-3-yl)methoxy)ethanone] | 14.9 | 80
11 | Cc1cc(C)c(S(=O)(=O)N2Cc3ccccc3CC2COCC(=O)N2CCC(O)(c3ccc(Cl)cc3)CC2)c(C)c1 (stereo not shown) [Example 200, 1-(4-(4-chlorophenyl)-4-hydroxypiperidin-1-yl)-2-((2-(mesitylsulfonyl)-1,2,3,4-tetrahydroisoquinolin-3-yl)methoxy)ethanone] | 29.8 | 98.1
12 | COc1cc(C)c(S(=O)(=O)N2CCCC2COCC(=O)N2CCC(O)(c3cccnc3)CC2)c(C)c1 (stereo not shown) [Example 193, 1-(4-hydroxy-4-(pyridin-3-yl)piperidin-1-yl)-2-((1-(4-methoxy-2,6-dimethylphenylsulfonyl)pyrrolidin-2-yl)methoxy)ethanone] | 104 | 96.6
13 | O=C(COCC1CCCCN1S(=O)(=O)c1ccccc1C(F)(F)F)N1CCC(O)(Cc2ccccc2)CC1 (stereo not shown) [Example 176, 1-(4-benzyl-4-hydroxypiperidin-1-yl)-2-((1-(2-(trifluoromethyl)phenylsulfonyl)piperidin-2-yl)methoxy)ethanone] | 91 | 102
14 | O=C(COCC1CCCN1S(=O)(=O)c1c(Cl)cc(C(F)(F)F)cc1Cl)N1CCC(O)(c2ccc(Cl)cc2)CC1 (stereo not shown) [Example 166, 1-(4-(4-chlorophenyl)-4-hydroxypiperidin-1-yl)-2-((1-(2,6-dichloro-4-(trifluoromethyl)phenylsulfonyl)pyrrolidin-2-yl)methoxy)ethanone] | 58.5 | 104
15 | COc1ccc(S(=O)(=O)N2Cc3ccccc3CC2COCC(=O)N2CCC(O)(c3ccccn3)CC2)cc1 (stereo not shown) [Example 50, 1-(4′-hydroxy-3′,4′,5′,6′-tetrahydro-2′H-[2,4′]bipyridinyl-1′-yl)-2-[2-(4-methoxy-phenylsulfonyl)-1,2,3,4-tetrahydro-isoquinolin-3-ylmethoxy]-ethanone] | -9.09 | 47.5
16 | O=C(COCC1CCc2ccccc2N1S(=O)(=O)c1ccc(Cl)c(Cl)c1)N1CCC(O)(c2ccncc2)CC1 (stereo not shown) [Example 147, 2-((1-(3,4-dichlorophenylsulfonyl)-1,2,3,4-tetrahydroquinolin-2-yl)methoxy)-1-(4-hydroxy-4-(pyridin-4-yl)piperidin-1-yl)ethanone] | 53.9 | 93.3
17 | O=C(COCC1CCCN1S(=O)(=O)c1c(Cl)cc(Cl)cc1Cl)N1CCC(O)(c2cccnc2)CC1 (stereo not shown) [Example 204, 1-(4-hydroxy-4-(pyridin-3-yl)piperidin-1-yl)-2-((1-(2,4,6-trichlorophenylsulfonyl)pyrrolidin-2-yl)methoxy)ethanone] | 104 | 98
18 | Cc1cc(S(=O)(=O)N(C)CCCC(=O)N2CCC(O)(c3cccnc3)CC2)c(C)cc1Cl [Example 113, 4-chloro-N-(4-(4-hydroxy-4-(pyridin-3-yl)piperidin-1-yl)-4-oxobutyl)-N,2,5-trimethylphenylsulfonamide hydrochloride] | 94.8 | 51.1
19 | COc1cc(C)c(S(=O)(=O)N(CCOCC(=O)N2CCC(O)(c3ccc(Cl)cc3)CC2)CC(C)C)c(C)c1C [Example 209, N-(2-(2-(4-(4-chlorophenyl)-4-hydroxypiperidin-1-yl)-2-oxoethoxy)ethyl)-N-isobutyl-4-methoxy-2,3,6-trimethylphenylsulfonamide] | 105 | 100
20 | Cc1cc(S(=O)(=O)N(C)CCOCC(=O)N2CCC(O)(c3ccc(Cl)cc3)CC2)c(C)cc1Cl [Example 150, 4-chloro-N-(2-(2-(4-(4-chlorophenyl)-4-hydroxypiperidin-1-yl)-2-oxoethoxy)ethyl)-N,2,5-trimethylphenylsulfonamide] | 95.3 | 93.7
21 | COc1cc(C)c(S(=O)(=O)N(CCOCC(=O)N2CCC(O)(c3cccnc3)CC2)C2CC2)c(C)c1 [Example 139, N-cyclopropyl-N-(2-(2-(4-hydroxy-4-(pyridin-3-yl)piperidin-1-yl)-2-oxoethoxy)ethyl)-4-methoxy-2,6-dimethylphenylsulfonamide] | 104 | 101
22 | COc1ccc(S(=O)(=O)N2CCCCC2CCOCC(=O)N2CCC(O)(c3ccccn3)CC2)cc1 (stereo not shown) [Example 44, 1-(4′-hydroxy-3′,4′,5′,6′-tetrahydro-2′H-[2,4′]bipyridinyl-1′-yl)-2-{2-[1-(4-methoxy-phenylsulfonyl)-piperidin-2-yl]-ethoxy}-ethanone] | -2.3 | 76.6
23 | COc1cc(C)c(S(=O)(=O)N(CCOCC(=O)N2CCC(O)(c3cccnc3)CC2)Cc2ccccc2)c(C)c1 [Example 130, N-benzyl-N-(2-(2-(4-hydroxy-4-(pyridin-3-yl)piperidin-1-yl)-2-oxoethoxy)ethyl)-4-methoxy-2,6-dimethylphenylsulfonamide] | 103 | 98.6
